From publication PMC8607422, “Development of a novel TLR8 agonist for cancer immunotherapy” (Molecular Biomedicine, 2020)

How the values were obtained:
hTLR9 = biological target: T1, hTLR9 (Homo sapiens, UniProt Q9NR96); assay: HEK-Blue hTLR9 SEAP reporter agonist assay; assay type: cell-based; settings: HEK-Blue hTLR9 cells, highest concentration 50 μM
T1 construct: host or cells: HEK-Blue hTLR9
T1 sequence (Q9NR96 26-1032): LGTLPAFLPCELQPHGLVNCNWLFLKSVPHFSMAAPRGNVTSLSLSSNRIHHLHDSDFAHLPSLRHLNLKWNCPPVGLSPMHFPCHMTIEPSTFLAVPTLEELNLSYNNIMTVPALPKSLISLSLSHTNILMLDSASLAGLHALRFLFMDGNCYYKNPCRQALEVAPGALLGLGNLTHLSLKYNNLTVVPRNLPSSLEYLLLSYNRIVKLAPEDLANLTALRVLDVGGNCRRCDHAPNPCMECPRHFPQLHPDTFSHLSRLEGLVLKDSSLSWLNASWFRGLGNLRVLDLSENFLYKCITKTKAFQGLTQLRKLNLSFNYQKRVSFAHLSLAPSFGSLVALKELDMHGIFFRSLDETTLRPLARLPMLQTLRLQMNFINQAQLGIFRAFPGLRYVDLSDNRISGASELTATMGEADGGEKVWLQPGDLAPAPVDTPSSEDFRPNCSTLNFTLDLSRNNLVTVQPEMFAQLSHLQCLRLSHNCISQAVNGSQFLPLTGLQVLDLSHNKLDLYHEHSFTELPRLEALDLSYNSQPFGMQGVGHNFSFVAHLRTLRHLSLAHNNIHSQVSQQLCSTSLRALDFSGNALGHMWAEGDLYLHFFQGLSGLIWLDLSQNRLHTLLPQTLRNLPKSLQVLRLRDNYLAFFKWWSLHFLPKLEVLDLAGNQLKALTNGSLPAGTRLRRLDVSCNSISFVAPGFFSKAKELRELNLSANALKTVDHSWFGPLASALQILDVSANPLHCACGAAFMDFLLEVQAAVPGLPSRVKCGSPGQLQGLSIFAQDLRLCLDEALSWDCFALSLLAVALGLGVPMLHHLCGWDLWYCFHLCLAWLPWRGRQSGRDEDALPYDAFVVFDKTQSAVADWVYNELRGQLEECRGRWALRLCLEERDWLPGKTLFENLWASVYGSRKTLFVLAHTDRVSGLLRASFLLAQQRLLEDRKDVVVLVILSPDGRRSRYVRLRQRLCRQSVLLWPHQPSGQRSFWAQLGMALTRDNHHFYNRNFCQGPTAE
Description: HEK-Blue™ hTLR4, 7, 8 and 9 cell lines were purchased from InvivoGen (Hong Kong). The cells express the human TLR gene and NF-κB/AP-1-inducible SEAP (secreted embryonic alkaline phosphatase) reporter gene. SEAP levels produced upon TLR stimulation can be determined by QUANTI-Blue™. In the cell-based assay, the main reagents used were QUANTI-Blue™ (InvivoGen) and ATPlite 1 Step (Perkin Elmer). The main instruments used were the microplate reader SpectraMax 340PC (Molecular Device) and Envision (Perkin Elmer). Motolimod and DN052 were synthesized in house. […] The compounds were in 10 mM stock solution in DMSO and stored at − 20°C. The compounds were serially diluted in the concentration range from 0.5 nM to 15 μM (up to 50 μM in the hTLR4, hTLR7 and hTLR9 assays) and added to 96-well plates. DMSO was used as the negative control. LPS-EK, R848, motolimod and ODN2006 were used as the positive control for TLR4, 7, 8 and 9, respectively. The cells were cultured and treated with the compounds at 37°C, 5%CO2 for 24 h. […] After 1.5 h of incubation, the optical density was measured using the spectrophotometer at 650 nm in the microplate reader of SpectraMax 340PC. The cell viability of each well was determined using ATPlite 1 Step following the manufacturer’s instruction. The luminescence signal in each well of plates was measured in the microplate reader of Envision.

in vivo = assay: in vivo; design: species or system Sprague Dawley rats; settings: Sprague Dawley, rat
Procedure: To determine the in vivo pharmacokinetic profiles, the compounds were formulated with 11% captisol and then administered iv, ip, sc and po into Sprague Dawley rats or iv and sc into mice or cynomolgus monkeys, respectively. Blood samples were collected before dosing and 0.083 h, 0.25 h, 0.5 h, 1 h, 2 h, 4 h, 6 h, 8 h, 12 h and 24 h after dosing. Blood samples were collected in tubes containing K2EDTA. Plasma was isolated from the blood samples by centrifugation of the blood samples at 2400 × g for 5 min at 4°C. Plasma samples were measured using LC-MS/MS (Waters ACQUITY UPLC and TQ 6500+) to determine the concentration of compounds. The data was analyzed using WinNonlin 7.0 to calculate the PK parameters such as AUC0-t, AUC0-∞, MRT0-∞, Cmax, Tmax, t1/2 and F.

serum cytokines = assay: In vivo cytokine induction in monkeys; design: species or system cynomolgus monkeys; settings: monkey, 1 mg/kg sc single dose
Procedure: Cynomolgus monkeys were purchased from Guangxi Xiongsen Primate Laboratory Animals Co., Ltd. (Guangxi, China) and three 3–4 years old male monkeys were used in each group. […] A single dose of motolimod was sc administered at 1 mg/kg. Blood samples were collected pre-dose, 6 and 24 h post-dose. Levels of cytokines including IFN-γ, IL-10, IL-1β, IL-6, IL-8, MIP-1α, MIP-1β, G-CSF, IL-12p40, IL-12p70 and TNF-α were measured using MSD ECL cytokine assay kit following the manufacturer’s protocol.

CCCN(CCC)C(=O)C1=Cc2ccc(-c3ccc(C(=O)N4CCCC4)cc3)cc2N=C(N)C1 [Motolimod, motolimod]
EC50 (hTLR9): > 50 µM | bioavailability (in vivo): 57.4% | Vd (in vivo; iv, 2.5 mg/kg): 18.6 L/kg | clearance (in vivo; iv, 2.5 mg/kg): 45.5 mL/min/kg | AUC(0-inf) (in vivo; sc, 10 mg/kg): 2130 ng·h/mL | AUC(0-t) (in vivo; sc, 10 mg/kg): 2130 ng·h/mL | Cmax (in vivo; sc, 10 mg/kg): 720 ng/mL | Tmax (in vivo; sc, 10 mg/kg): 1.17 h | half-life (in vivo; sc, 10 mg/kg): 0.92 h | serum G-CSF, Mean Values (serum cytokines; 0 h (pre-dose)): 7.135 pg/mL | serum IFN-γ, Mean Values (serum cytokines; 0 h (pre-dose)): 1.017 pg/mL | serum IL-1β, Mean Values (serum cytokines; 0 h (pre-dose)): 0.000 pg/mL | serum IL-6, Mean Values (serum cytokines; 0 h (pre-dose)): 1.510 pg/mL | serum IL-8, Mean Values (serum cytokines; 0 h (pre-dose)): 0.000 pg/mL | serum IL-10, Mean Values (serum cytokines; 0 h (pre-dose)): 0.271 pg/mL | serum IL-12p40, Mean Values (serum cytokines; 0 h (pre-dose)): 131.413 pg/mL | serum IL-12p70, Mean Values (serum cytokines; 0 h (pre-dose)): 2.582 pg/mL | serum MIP-1α, Mean Values (serum cytokines; 0 h (pre-dose)): 71.636 pg/mL | serum MIP-1β, Mean Values (serum cytokines; 0 h (pre-dose)): 93.266 pg/mL | serum G-CSF, Mean Values (serum cytokines; 6 h): 345.154 pg/mL | serum IFN-γ, Mean Values (serum cytokines; 6 h): 0.500 pg/mL | serum IL-1β, Mean Values (serum cytokines; 6 h): 0.286 pg/mL | serum IL-6, Mean Values (serum cytokines; 6 h): 342.661 pg/mL | serum IL-8, Mean Values (serum cytokines; 6 h): 0.378 pg/mL | serum IL-10, Mean Values (serum cytokines; 6 h): 15.222 pg/mL | serum IL-12p40, Mean Values (serum cytokines; 6 h): 305.212 pg/mL | serum IL-12p70, Mean Values (serum cytokines; 6 h): 5.154 pg/mL | serum MIP-1α, Mean Values (serum cytokines; 6 h): 227.638 pg/mL | serum MIP-1β, Mean Values (serum cytokines; 6 h): 1655.094 pg/mL | serum G-CSF, Mean Values (serum cytokines; 24 h): 32.168 pg/mL | serum IFN-γ, Mean Values (serum cytokines; 24 h): 0.462 pg/mL | serum IL-1β, Mean Values (serum cytokines; 24 h): 0.099 pg/mL | serum IL-6, Mean Values (serum cytokines; 24 h): 12.185 pg/mL | serum IL-8, Mean Values (serum cytokines; 24 h): 0.119 pg/mL | serum IL-10, Mean Values (serum cytokines; 24 h): 1.347 pg/mL | serum IL-12p40, Mean Values (serum cytokines; 24 h): 118.409 pg/mL | serum IL-12p70, Mean Values (serum cytokines; 24 h): 3.305 pg/mL | serum MIP-1α, Mean Values (serum cytokines; 24 h): 87.417 pg/mL | serum MIP-1β, Mean Values (serum cytokines; 24 h): 221.881 pg/mL
